The values that follow are results of earlier work, collected in patent publication US20080279948A1, “Treatment of Asthma and Copd Using Triple-Combination Therapy” (NXP B.V., priority 2005, published 2008).

SMILES strings stand for the structures.

For data set [1] the following is noted: aerosol formulation, single administration of a metered dose, asthma.
The conditions of data set [2]: controlled release formulation for pulmonary delivery.

Take `C[N+]1(C)CCC(OC(=O)C(O)(c2ccccc2)C2CCCC2)C1.[Br-]` (racemic) [glycopyrrolate, 3-[(Cyclopentyl-hydroxyphenylacetyl)oxy]-1,1-dimethylpyrrolidinium bromide]: in data set [1], the duration of bronchodilation entry was “up to 12 hours”. The “period over which the antimuscarinic agent exerts its pharmacological effect” value in data set [2] is reported as “greater than 12 hours”.
